Data: BindingDB's records for patent US11104664 (Yangtze River Pharmaceutical Group Co., 2021)
pIC50: −log10 of the molar value.

Target: Histone-lysine N-methyltransferase EZH2 [Y641F] (Homo sapiens, UniProt Q15910, Y641F)
Assay: In Vitro Methyltransferase Activity Assay
Protocol: Recombinant PRC2 (EZH2-Y641F) was purchased from Active motif, S-adenosyl-methionine (SAM) and Poly-L-lysine (PLL) were purchased from Sigma-Aldrich, and H3(1-50)K27me1 peptide was purchased from Cisbio. LANCEUltrasystem (Perkinelmer) was used for detection system. In the enzyme activity test, compounds to be tested were diluted by 8 gradient points in a ratio of 1:3, and added into each well in a reaction plate, and 100 ng recombinase was added, followed by a buffer [20 mM Tris pH8.5, 2 mM MgCl2, 0.01% Tween-20, 1 mM TCEP] containing 2.5 uM SAM/250 nM H3 (1-50)K27me1 premixtures. Enzymatic reaction thus began at room temperature. After reacted for 3 hours, a detection solution premixed with PLL, detection antibody and Ulight was added, and reacted for 1 hour at room temperature. The fluorescence value was then read on a Tecan infinite pro. IC50 was calculated by fitting in a four-factor model in the XLfit software.

Sequence of Histone-lysine N-methyltransferase EZH2 [Y641F] (Q15910 whole entry Y641F): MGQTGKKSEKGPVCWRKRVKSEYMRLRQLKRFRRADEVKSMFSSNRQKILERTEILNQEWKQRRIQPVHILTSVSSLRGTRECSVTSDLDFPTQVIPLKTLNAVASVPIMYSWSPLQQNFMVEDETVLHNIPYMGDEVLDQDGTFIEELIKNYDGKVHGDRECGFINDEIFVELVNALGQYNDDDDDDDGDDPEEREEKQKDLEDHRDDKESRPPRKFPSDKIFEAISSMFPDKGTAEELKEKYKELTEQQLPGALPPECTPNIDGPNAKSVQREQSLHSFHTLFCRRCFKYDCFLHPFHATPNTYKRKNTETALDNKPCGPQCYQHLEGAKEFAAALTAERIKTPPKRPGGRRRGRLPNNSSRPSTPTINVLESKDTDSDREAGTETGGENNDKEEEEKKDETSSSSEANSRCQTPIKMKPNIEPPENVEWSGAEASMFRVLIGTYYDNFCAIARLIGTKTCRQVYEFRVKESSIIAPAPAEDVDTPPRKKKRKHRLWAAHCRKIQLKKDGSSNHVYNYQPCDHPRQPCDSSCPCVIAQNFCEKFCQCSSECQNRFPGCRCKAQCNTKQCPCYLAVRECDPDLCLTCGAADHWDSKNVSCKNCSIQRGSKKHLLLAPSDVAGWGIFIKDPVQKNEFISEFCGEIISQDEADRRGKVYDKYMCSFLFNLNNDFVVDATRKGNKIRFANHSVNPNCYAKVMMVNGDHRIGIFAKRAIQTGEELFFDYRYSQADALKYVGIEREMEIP

With `CCN(c1c(C)c(C(=O)NCc2c(C)cc(C)[nH]c2=O)cc2c1cnn2C)C1CCOCC1` [US11104664, Compound P-7] as the molecule, how does the pIC50 read?
Its pIC50 is 7.92.
